Measurements taken from EPA's ToxRefDB 2.

Tests used:
dog [1] = conditions: Subchronic oral toxicity in nonrodent, beagle, Capsule, dose end: 91 day, group: systemic
mouse [2] = conditions: Carcinogenicity, other, Oral, Feed, dose end: 18 month, group: systemic
dog [3] = conditions: Chronic toxicity; beagle; Oral; Capsule; dose end: 12 month; group: systemic; systemic / in life observation / clinical signs / fur (altered appearance) + systemic / in life observation / clinical signs / skin …
rat [4] = conditions: Multigenerational reproductive toxicity study, other, Oral, Feed, dose end: 2 generation
rabbit = conditions: Prenatal developmental toxicity study, other, Oral, Gavage/Intubation, dose end: 19 GD
rat [5] = conditions: Subchronic oral toxicity in rodents, other, Feed, dose end: 3 month, group: systemic
rat [6] = conditions: Combined chronic toxicity/carcinogenicity, other, Oral, Feed, dose end: 2 year, group: systemic
rat [7] = conditions: Subchronic oral toxicity in rodents, wistar, Feed, dose end: 13 week, group: systemic, systemic / clinical chemistry / [other] / [other] + systemic / clinical chemistry / alkaline phosphatase (alp/alk) / alkaline phosphatase (…
rat [8] = conditions: Combined chronic toxicity/carcinogenicity, other, Oral, Feed, dose end: 2 year, group: systemic; remark: listed apart in the source
mouse [9] = conditions: Subchronic oral toxicity in rodents, other, Feed, dose end: 13 week, group: systemic
mouse [10] = conditions: Carcinogenicity; other; Oral; Feed; dose end: 24 month; group: systemic; systemic / clinical chemistry / alkaline phosphatase (alp/alk) / alkaline phosphatase (alp/alk) + systemic / organ weight / heart / nos + …
rat [11] = conditions: Combined chronic toxicity/carcinogenicity, wistar, Oral, Feed, dose end: 2 year, group: systemic
dog [12] = conditions: Chronic toxicity, beagle, Oral, Feed, dose end: 15 month, group: systemic
rat [13] = conditions: Multigenerational reproductive toxicity study, sprague dawley, Oral, Feed, dose end: 2 generation
rat [14] = conditions: Prenatal developmental toxicity study, fischer, Dermal, Topical, dose end: 15 GD, group: maternal
mouse [15] = conditions: Carcinogenicity, b6c3f1, Oral, Gavage/Intubation, dose end: 18 month, group: systemic
rat [16] = conditions: Carcinogenicity, fischer, Oral, Gavage/Intubation, dose end: 24 month, group: systemic
rat [17] = conditions: Prenatal developmental toxicity study, other, Oral, Gavage/Intubation, dose end: 15 GD
rat [18] = conditions: Combined chronic toxicity/carcinogenicity, sprague dawley, Oral, Feed, dose end: 24 month, group: systemic
rat [19] = conditions: Multigenerational reproductive toxicity study, sprague dawley, Oral, Feed, dose end: 2 generation; remark: listed apart in the source
mouse [20] = conditions: Carcinogenicity, cd1, Oral, Feed, dose end: 78 week, group: systemic
rat [21] = conditions: Subchronic oral toxicity in rodents, sprague dawley, Feed, dose end: 90 day, group: systemic, systemic / organ weight / kidney / absolute + systemic / organ weight / kidney / relative to body weight + systemic / organ weight / kidney…
dog [22] = conditions: Subchronic oral toxicity in nonrodent, beagle, Capsule, dose end: 90 day, group: systemic, systemic / clinical chemistry / [other] / [other] + systemic / clinical chemistry / alkaline phosphatase (alp/alk) / alkaline phosphatase (…
rat [23] = conditions: Subchronic oral toxicity in rodents, other, Feed, dose end: 90 day, group: systemic, systemic / in life observation / body weight / body weight gain + systemic / pathology microscopic / kidney / regeneration + systemic / …
[24] = systemic / in life observation / clinical signs / vomitting + systemic / organ weight / liver / relative to body weight + systemic / …
[25] = systemic / in life observation / body weight / body weight + systemic / in life observation / body weight / body weight gain
[26] = systemic / in life observation / body weight / body weight + systemic / in life observation / body weight / body weight gain + systemic / …
[27] = group: offspring, systemic / in life observation / body weight / offspring (pup) weight
[28] = group: offspring, systemic / in life observation / body weight / offspring (pup) weight + developmental / developmental landmark / eye opening / eye opening
[29] = group: parental, systemic / pathology microscopic / kidney / pigmentation + systemic / pathology microscopic / spleen / erythrophagocytosis
[30] = group: parental, systemic / pathology microscopic / kidney / pigmentation + systemic / pathology microscopic / spleen / erythrophagocytosis + systemic / in …
[31] = group: developmental, developmental / developmental malformation / bone / fused
[32] = group: maternal, systemic / in life observation / body weight / body weight gain + systemic / in life observation / food consumption / food consumption + …
[33] = systemic / in life observation / body weight / body weight + systemic / pathology microscopic / liver / hypertrophy + systemic / pathology …
[34] = systemic / in life observation / body weight / body weight + systemic / in life observation / body weight / body weight gain + systemic / in…
[35] = systemic / pathology microscopic / lung / cholesterol cleft(s) + systemic / pathology microscopic / lung / foam cell aggregation
[36] = systemic / pathology microscopic / lung / cholesterol cleft(s) + systemic / pathology microscopic / lung / foam cell aggregation + systemic…
[37] = systemic / pathology microscopic / liver / necrosis
[38] = systemic / pathology microscopic / liver / necrosis + systemic / clinical chemistry / [other] / [other] + systemic / pathology microscopic…
[39] = systemic / clinical chemistry / albumin / albumin + systemic / clinical chemistry / alkaline phosphatase (alp/alk) / alkaline phosphatase (…
[40] = systemic / pathology gross / liver / accentuated lobular pattern + systemic / pathology microscopic / liver / fatty change
[41] = systemic / pathology gross / liver / accentuated lobular pattern + systemic / pathology microscopic / liver / fatty change + systemic / …
[42] = group: offspring, developmental / developmental landmark / eye opening / eye opening + developmental / developmental landmark / incisor eruption / incisor …
[43] = group: offspring, systemic / organ weight / adrenal gland / absolute
[44] = group: parental, systemic / organ weight / uterus / absolute
[45] = systemic / in life observation / clinical signs / scabbing
[46] = systemic / organ weight / testes / relative to body weight
[47] = systemic / organ weight / testes / relative to body weight + systemic / pathology microscopic / liver / carcinoma + systemic / hematology / …
[48] = systemic / in life observation / body weight / body weight gain + systemic / in life observation / clinical signs / labored respiration + …
[49] = systemic / organ weight / stomach / relative to body weight + systemic / in life observation / body weight / body weight gain
[50] = group: developmental, developmental / developmental malformation / aortic arch / retroesophageal + developmental / developmental malformation / bone / misshapen…
[51] = group: maternal, systemic / in life observation / body weight / body weight + systemic / in life observation / body weight / body weight gain
[52] = group: maternal, systemic / in life observation / body weight / body weight + systemic / in life observation / body weight / body weight gain + reproductive…
[53] = group: offspring, developmental / offspring survival late / [other] / [other] + developmental / offspring survival late / viability index / viability index + …
[54] = group: offspring, systemic / pathology microscopic / kidney / dilatation
[55] = group: parental, systemic / in life observation / body weight / body weight + systemic / in life observation / food consumption / food consumption + systemic…
[56] = systemic / in life observation / mortality / mortality + systemic / organ weight / kidney / absolute + systemic / organ weight / kidney / …

CO/N=C(/C(=O)OC)c1ccccc1CO/N=C(\C)c1cccc(C(F)(F)F)c1 [Trifloxystrobin]
LEL (dog [1]; systemic / clinical chemistry / bilirubin / total bilirubin): 30 mg/kg/day
LOAEL (dog [1]; [24]): 150 mg/kg/day
NEL (dog [1]; [24]): 5 mg/kg/day
NOAEL (dog [1]; [24]): 30 mg/kg/day
LEL (mouse [2]; [25]): 35.7 mg/kg/day
LOAEL (mouse [2]; [25]): 35.7 mg/kg/day
NEL (mouse [2]; [26]): 3.51 mg/kg/day
NOAEL (mouse [2]; [26]): 3.51 mg/kg/day
LEL (dog [3]): 50 mg/kg/day
LOAEL (dog [3]): 50 mg/kg/day
NEL (dog [3]): 5 mg/kg/day
NOAEL (dog [3]): 5 mg/kg/day
LEL (rat [4]; [27]): 65.5 mg/kg/day
LOAEL (rat [4]; [27]): 65.5 mg/kg/day
NEL (rat [4]; [28]): 4.2 mg/kg/day
NOAEL (rat [4]; [28]): 4.2 mg/kg/day
LEL (rat [4]; [29]): 55.3 mg/kg/day
LOAEL (rat [4]; [29]): 55.3 mg/kg/day
NEL (rat [4]; [30]): 3.8 mg/kg/day
NOAEL (rat [4]; [30]): 3.8 mg/kg/day
LEL (rabbit; [31]): 500 mg/kg/day
LOAEL (rabbit; [31]): 500 mg/kg/day
NEL (rabbit; [31]): 250 mg/kg/day
NOAEL (rabbit; [31]): 250 mg/kg/day
LEL (rabbit; [32]): 50 mg/kg/day
LOAEL (rabbit; [32]): 50 mg/kg/day
NEL (rabbit; [32]): 10 mg/kg/day
NOAEL (rabbit; [32]): 10 mg/kg/day
NEL (rat [5]; systemic / clinical chemistry / urea nitrogen / urea + systemic / urinalysis / ph / ph + systemic / clinical chemistry / glucose / glucose…): 618 mg/kg/day
LOAEL (rat [5]; [33]): 127 mg/kg/day
NOAEL (rat [5]; [33]): 30.6 mg/kg/day
LEL (rat [6]; [25]): 29.7 mg/kg/day
LOAEL (rat [6]; [25]): 29.7 mg/kg/day
NEL (rat [6]; [34]): 9.81 mg/kg/day
NOAEL (rat [6]; [34]): 9.81 mg/kg/day

COC(=O)C(C)Oc1ccc(Oc2ccc(Cl)cc2Cl)cc1 (configuration not stated) [Diclofop-methyl]
LEL (rat [7]): 6.32 mg/kg/day
LOAEL (rat [7]): 6.32 mg/kg/day
NOAEL (rat [7]): 1.56 mg/kg/day
LEL (rat [8]; [35]): 0.32 mg/kg/day
LOAEL (rat [8]; [35]): 0.32 mg/kg/day
NEL (rat [8]; [36]): 0.1 mg/kg/day
NOAEL (rat [8]; [36]): 0.1 mg/kg/day
LEL (mouse [9]; [37]): 0.3 mg/kg/day
NEL (mouse [9]; [37]): < 0.3 mg/kg/day
LOAEL (mouse [9]; [38]): 1 mg/kg/day
NOAEL (mouse [9]; [38]): 0.3 mg/kg/day
LEL (mouse [10]): 0.76 mg/kg/day
LOAEL (mouse [10]): 0.76 mg/kg/day
NEL (mouse [10]): 0.24 mg/kg/day
NOAEL (mouse [10]): 0.24 mg/kg/day
LEL (rat [11]; [39]): 2.3 mg/kg/day
LOAEL (rat [11]; [39]): 2.3 mg/kg/day
NOAEL (rat [11]; [39]): 0.23 mg/kg/day
NEL (rat [11]; systemic / hematology / hemoglobin (hgb) / hemoglobin (hgb) + systemic / hematology / erythrocyte (rbc) count differential / erythrocyte (…): 0.23 mg/kg/day
LEL (dog [12]; [40]): 0.625 mg/kg/day
LOAEL (dog [12]; [40]): 0.625 mg/kg/day
NEL (dog [12]; [41]): 0.2 mg/kg/day
NOAEL (dog [12]; [41]): 0.2 mg/kg/day
LOAEL (rat [13]; [42]): 7.3 mg/kg/day
NOAEL (rat [13]; [42]): 2.1 mg/kg/day
LEL (rat [13]; [43]): 0.9 mg/kg/day
NEL (rat [13]; [43]): < 0.9 mg/kg/day
LOAEL (rat [13]; group: parental, systemic / organ weight / liver / absolute + systemic / organ weight / liver / relative to body weight): 2.1 mg/kg/day
NOAEL (rat [13]; group: parental, systemic / organ weight / liver / absolute + systemic / organ weight / liver / relative to body weight + systemic / organ weight / kidney / …): 0.7 mg/kg/day
LEL (rat [13]; [44]): 0.9 mg/kg/day
NEL (rat [13]; [44]): < 0.9 mg/kg/day

CCCCC(CC)CO (configuration not stated) [2-Ethyl-1-hexanol]
LOAEL (rat [14]; systemic / in life observation / clinical signs / erythema + systemic / in life observation / clinical signs / scabbing + systemic / …): 840 mg/kg/day
LEL (rat [14]; [45]): 252 mg/kg/day
NEL (rat [14]; [45]): < 252 mg/kg/day
LEL (mouse [15]; [46]): 50 mg/kg/day
NEL (mouse [15]; [46]): < 50 mg/kg/day
LOAEL (mouse [15]; [47]): > 750 mg/kg/day
NOAEL (mouse [15]; [47]): ≥ 750 mg/kg/day
LOAEL (rat [16]; [48]): > 500 mg/kg/day
NOAEL (rat [16]; [48]): ≥ 500 mg/kg/day
LEL (rat [16]; [49]): 50 mg/kg/day
NEL (rat [16]; [49]): < 50 mg/kg/day

O=C(O)CCCOc1ccc(Cl)cc1Cl [2,4-DB]
LEL (rat [17]; [50]): 125 mg/kg/day
LOAEL (rat [17]; [50]): 125 mg/kg/day
NEL (rat [17]; [50]): 62.5 mg/kg/day
NOAEL (rat [17]; [50]): 62.5 mg/kg/day
LEL (rat [17]; [51]): 62.5 mg/kg/day
LOAEL (rat [17]; [51]): 62.5 mg/kg/day
NEL (rat [17]; [52]): 31.2 mg/kg/day
NOAEL (rat [17]; [52]): 31.2 mg/kg/day
LOAEL (rat [18]; [34]): 30 mg/kg/day
NOAEL (rat [18]; [34]): 3 mg/kg/day
NEL (rat [18]; systemic / organ weight / liver / absolute + systemic / organ weight / heart / absolute + systemic / organ weight / spleen / absolute + …): 90 mg/kg/day
LOAEL (rat [19]; [53]): 112 mg/kg/day
NOAEL (rat [19]; [53]): 25 mg/kg/day
LEL (rat [19]; [54]): 25 mg/kg/day
NEL (rat [19]; [54]): 5 mg/kg/day
LEL (rat [19]; [55]): 112 mg/kg/day
LOAEL (rat [19]; [55]): 112 mg/kg/day
NEL (rat [19]; [55]): 25 mg/kg/day
NOAEL (rat [19]; [55]): 25 mg/kg/day
LOAEL (mouse [20]; [56]): 112 mg/kg/day
NOAEL (mouse [20]; [56]): 37.5 mg/kg/day
LEL (mouse [20]; systemic / in life observation / mortality / mortality + systemic / pathology microscopic / kidney / amyloid deposition + systemic / …): 112 mg/kg/day
NEL (mouse [20]; systemic / organ weight / kidney / absolute + systemic / organ weight / kidney / relative to body weight + systemic / organ weight / liver…): 37.5 mg/kg/day
LEL (rat [21]): 41.9 mg/kg/day
LOAEL (rat [21]): 41.9 mg/kg/day
NEL (rat [21]): 4.16 mg/kg/day
NOAEL (rat [21]): 4.16 mg/kg/day
LEL (dog [22]): 25 mg/kg/day
LOAEL (dog [22]): 25 mg/kg/day
NEL (dog [22]): 8 mg/kg/day
NOAEL (dog [22]): 8 mg/kg/day
LEL (rat [23]): 50 mg/kg/day
LOAEL (rat [23]): 50 mg/kg/day
NEL (rat [23]): 15.8 mg/kg/day
NOAEL (rat [23]): 15.8 mg/kg/day
